Laboratory results from patent US11485736B2 (KSQ Therapeutics, Inc., priority 2018, dated 2022).
Read-outs that look alike come from different tables or passages of the source.

How the values were obtained:
[1] = Liver microsomal stability, human liver microsomes; type: in vitro ADME; details: 1 μM compound, NADPH, read-out: t1/2 (min) in HLM
How it was run: (§1)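 Compound (1 μM final) was incubated with prewarmed human or rat liver microsomes (1 mg/mL in 100 mM phosphate master mix) plus NADPH; aliquots at 0.5–30 minutes were quenched in cold acetonitrile and quantified by LC-MS/MS. Half-life came from the ln(% remaining) versus time slope, converted to CLint (μL/min/mg prot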

[2] = Liver microsomal stability, rat liver microsomes; type: in vitro ADME; details: 1 μM compound, NADPH, read-out: t1/2 (min) in RLM
How it was run: as §1

[3] = ADME solubility determination at pH 2.0 and pH 7.4; type: physicochemical; details: aqueous buffer, thermodynamic from solid, LC-MS/MS
How it was run: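 Dried residues of 10 mM DMSO stocks were shaken in PBS pH 7.4 or pH 2.0 for 24 hours at 25° C. and 1,100 rpm. After centrifugation, supernatants were quantified by LC-MS/MS against a standard of known concentration, applying a dilution factor.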

[4] = PBS pH 2.0, shaken at 25° C. for 24 hours, read-out: Solubility at pH 2.0
[5] = PBS pH 7.4, shaken at 25° C. for 24 hours, read-out: Solubility at pH 7.4

Structure (SMILES)	half-life at 1 μM [1] [min]	half-life at 1 μM [2] [min]	solubility at 24 h [3, 4] [µM]	solubility at 24 h [3, 5] [µM]	solubility at 24 h ([3]; phosphate buffered saline, PBS pH 2.0, shaken at 25° C. for 24 hours, read-out: Solubility at pH 2.0) [µM]	solubility at 24 h ([3]; phosphate buffered saline, PBS pH 7.4, shaken at 25° C. for 24 hours, read-out: Solubility at pH 7.4) [µM]
CCn1cc(C(F)(F)F)nc1-c1ccc(Cn2ncc3cnc(-c4c(OC(F)F)ncnc4C4CC4)nc32)cc1 [Example 61]	> 25	< 25	< 10	< 10		
[2H]C([2H])([2H])C([2H])([2H])n1cc(C(F)(F)F)nc1-c1ccc(Cn2ncc3cnc(-c4c(OC)ncnc4C4CC4)nc32)cc1 [Example 139]	> 25	> 25	> 10	> 10		
COc1cc(Cn2ncc3cnc(-c4c(OC)ncnc4C4CC4)nc32)ccc1-c1cn(C)c(C(F)(F)F)n1 [Example 35]	> 25	> 25	< 10	< 10		
COc1ncnc(C2CC2)c1-c1ncc2cnn(Cc3ccc(-n4nc(C(F)(F)F)cc4CO)cc3)c2n1 [Example 198, (1-(4-((6-(4-cyclopropyl-6-methoxypyrimidin-5-yl)-1H-pyrazolo[3,4-d]pyrimidin-1-yl)methyl)phenyl)-3-(trifluoromethyl)-1H-pyrazol-5-yl)methanol]	> 25	> 25	< 10	< 10		
COc1ncnc(C2CC2)c1-c1ncc2cnn(Cc3ccc(-n4nc(C(F)(F)F)cc4C#N)cc3)c2n1 [Example 71]	> 25	> 25	< 10	< 10		
CCn1cc(C(F)(F)F)nc1-c1ccc(Cn2ncc3cnc(-c4c(OC5CC5)ncnc4C4CC4)nc32)cc1 [Example 63]	> 25	< 25	> 10	< 10		
CCn1c(-c2ccc(Cn3ncc4cnc(-c5c(OC)ncnc5C5CC5)nc43)cc2)nc(C(F)(F)F)c1C [Example 167, 6-(4-cyclopropyl-6-methoxypyrimidin-5-yl)-1-(4-(1-ethyl-5-methyl-4-(trifluoromethyl)-1H-imidazol-2-yl)benzyl)-1H-pyrazolo[3,4-d]pyrimidine]	< 25	< 25	> 10	< 10		
COc1ncnc(C2CC2)c1-c1ncc2c(OC)nn([C@@H](C)c3ccc(-c4nc(C(F)(F)F)cn4C(C)C)cc3)c2n1 [Example 181]	> 25	> 25	> 10	< 10		
CNc1cc(C(F)(F)F)nn1-c1ccc(Cn2ncc3cnc(-c4c(OC)ncnc4C4CC4)nc32)cc1 [Example 120]	< 25	< 25	< 10	< 10		
COc1ncnc(C2CC2)c1-c1ncc2ncn(Cc3ccc(-n4nc(C(F)(F)F)cc4C)cc3)c2n1 [Example 210]	> 25	> 25	> 10	> 10		
COc1ncnc(C2CC2)c1-c1ncc2cnn(Cc3ccc(-c4nc(C(F)(F)F)nn4C)c(F)c3)c2n1 [Example 57]	> 25	> 25	> 10	> 10		
COc1ncnc(C2CC2)c1-c1ncc2cnn(Cc3ccc(-c4cn(C)c(C(F)(F)F)n4)cc3)c2n1 [Example 13]	> 25	> 25	< 10	< 10		
CCn1cc(C(F)(F)F)nc1-c1ccc(Cn2ncc3cnc(-c4c(OC5CCC5)ncnc4C4CC4)nc32)cc1 [Example 64]	< 25	< 25	< 10	< 10		
COCCOc1ncnc(C)c1-c1ncc2cnn(Cc3ccc(-n4nc(C(F)(F)F)cc4C)cc3)c2n1 [Example 47]	< 25	< 25	> 10	> 10		

Further lines, results first:

half-life at 1 μM [1] [min]	half-life at 1 μM [2] [min]	solubility at 24 h [3, 4] [µM]	solubility at 24 h [3, 5] [µM]	solubility at 24 h ([3]; phosphate buffered saline, PBS pH 2.0, shaken at 25° C. for 24 hours, read-out: Solubility at pH 2.0) [µM]	solubility at 24 h ([3]; phosphate buffered saline, PBS pH 7.4, shaken at 25° C. for 24 hours, read-out: Solubility at pH 7.4) [µM]	Structure (SMILES)
< 25	< 25	> 10	> 10			CC(C)c1ccccc1-c1ncc2cnn(Cc3ccc(-c4nc(C(F)(F)F)cn4C4CN(C)C4)cc3)c2n1 [Example 152, 6-(2-Isopropylphenyl)-1-(4-(1-(1-methylazetidin-3-yl)-4-(trifluoromethyl)-1H-imidazol-2-yl)benzyl)-1H-pyrazolo[3,4-d]pyrimidine]
< 25	< 25			> 10	> 10	COc1ncnc(C2CC2)c1-c1ncc2cnn(Cc3ccc(-c4nc(C(F)(F)F)cn4C4CN(C)C4)cc3)c2n1 [Example 153]
> 25	> 25	> 10	> 10			COc1ncnc(OC)c1-c1ncc2cnn(Cc3ccc(-c4nc(C(F)(F)F)cn4C(C)C)cc3)c2n1 [Example 90]
> 25	< 25	< 10	< 10			CCn1cc(C(F)(F)F)nc1-c1ccc(Cn2nc(C#N)c3cnc(-c4c(OC)ncnc4C4CC4)nc32)cc1 [Example 172, 6-(4-cyclopropyl-6-methoxypyrimidin-5-yl)-1-(4-(1-ethyl-4-(trifluoromethyl)-1H-imidazol-2-yl)benzyl)-1H-pyrazolo[3,4-d]pyrimidine-3-carbonitrile]
< 25	< 25	< 10	< 10			CSc1cccc(C)c1-c1ncc2cnn(Cc3ccc(-c4nc(C(F)(F)F)cn4C)cc3)c2n1 [Example 21]
> 25	> 25	< 10	< 10			Cn1cc(C(F)(F)F)nc1-c1ccc(Cn2ncc3cnc(-c4c(OS(=O)(=O)C(F)(F)F)ncnc4C4CC4)nc32)cc1 [Example 160, 6-Cyclopropyl-5-(1-(4-(1-methyl-4-(trifluoromethyl)-1H-imidazol-2-yl)benzyl)-1H-pyrazolo[3,4-d]pyrimidin-6-yl)pyrimidin-4-yl trifluoromethanesulfonate]
> 25	< 25	< 10	< 10			Cc1cc(C(F)(F)F)nn1-c1ccc(Cn2ncc3cnc(-c4ccccc4C(C)C)nc32)cc1 [Example 23]
> 25	> 25	< 10	< 10			CCn1cc(C(F)(F)F)nc1-c1ccc(Cn2ncc3c(C)nc(-c4c(OC)ncnc4C4CC4)nc32)cc1 [Example 53]
> 25	< 25	> 10	< 10			Cc1cc(C(F)(F)F)nn1-c1ccc(Cn2ncc3cnc(-c4cccnc4C(C)C)nc32)cc1 [Example 26]
< 25	< 25	> 10	< 10			Cc1cc(C(F)F)nn1-c1ccc(Cn2ncc3cnc(-c4cccnc4C(C)C)nc32)cc1 [Example 32]
< 25	< 25	< 10	< 10			CCOc1ncnc(C2CC2)c1-c1ncc2c(OCC)nn(Cc3ccc(-c4nc(C(F)(F)F)cn4CC)cc3)c2n1 [Example 183]
> 25	> 25	> 10	< 10			Cn1cc(C(F)(F)F)nc1-c1ccc(Cn2ncc3cnc(-c4ccccc4S(C)(=O)=O)nc32)cc1 [Example 3, 1-(4-(1-methyl-4-(trifluoromethyl)-1H-imidazol-2-yl)benzyl)-6-(2-(methylsulfonyl)-phenyl)-1H-pyrazolo[3,4-d]pyrimidine]
< 25	< 25	< 10	< 10			Cc1cnn(C(C)C)c1-c1ncc2cnn(Cc3ccc(-n4nc(C(F)(F)F)cc4C)cc3)c2n1 [Example 44]
< 25	> 25	> 10	< 10			COc1nc(C)c(-c2ncc3cnn(Cc4ccc(-c5nc(C(F)(F)F)cn5C)cc4)c3n2)c(OC)n1 [Example 111]
< 25	< 25	> 10	> 10			COc1ncnc(C2CC2)c1-c1ncc2cnn([C@H](C)c3ccc(-c4nc(C(F)(F)F)cn4C)cc3)c2n1 (single isomer, unassigned) [Example 93]
> 25	> 25	> 10	< 10			COc1ncnc(C)c1-c1ncc2cnn(Cc3ccc(-n4nc(C(F)(F)F)cc4C)cc3)c2n1 [Example 48]
< 25	> 25	> 10	> 10			COCc1nc2cnc(-c3c(OC)ncnc3C3CC3)nc2n1Cc1ccc(-c2nc(C(F)(F)F)cn2C(C)C)cc1 [Example 207]
< 25	< 25	< 10	< 10			Cc1nn(Cc2ccc(-c3nc(C(F)(F)F)cn3C)cc2)c2nc(-c3ccccc3C(C)C)ncc12 [Example 25]
< 25	< 25	> 10	< 10			CCOc1ncnc(OCC)c1-c1ncc2cnn(Cc3ccc(-c4nc(C(F)(F)F)cn4CC)cc3)c2n1 [Example 91]
